Settings: Liquid, Closed cell (Static) method

CC(O)CO (stereo not given) [1,2-propanediol]
Settings | vapor or sublimation pressure [kPa]
350.15 K | 0.84
355.15 K | 1.131
360.15 K | 1.506
365.15 K | 1.987
370.15 K | 2.596
375.15 K | 3.361
380.15 K | 4.316
385.15 K | 5.496
390.15 K | 6.946
395.15 K | 8.715
400.15 K | 10.86
405.15 K | 13.44
410.15 K | 16.53
415.15 K | 20.22
420.15 K | 24.59

Source: the NIST ThermoML archive (doi:10.1016/j.fluid.2014.09.015)
